The test system of one assay is H4IIE-C3 cells. As to the kind of experiment: Measurement of sugar release suppressive action using cultured hepatocyte. The assay is classed as cell-based. As to conditions: Rattus norvegicus, H4IIEC3, 3 h, test compound 10 μM, Dexamethasone 500 nM and 8CPT-cAMP 0.1 mM, GSK3β inhibitor free group is 100%, read-out: sugar release suppressive activity (released glucose content, relative value). On the procedure: H4IIE-C3 cells (from rat liver) were seeded on 24 well or 96 well collagen coated plate (manufactured by Falcon), and cultured in Dulbecco's Modified Eagle Medium (DMEM: manufactured by GIBCO) containing 10% FBS, 25 mM Glucose until the cells became sub-confluent. Then, the cells were starvation treated with DMEM containing 0% FBS and 5.6 mM glucose. The medium was exchanged to DMEM containing test compound adjusted to 10 μM and sugar production stimulant (Dexamethasone (500 nM), 8CPT-cAMP (0.1 mM)), and the cells were pretreated for 5 hr. After washing with PBS, the cells were cultured in Phenol Red-free, Glucose-free DMEM containing the test compound and sugar production stimulant for 3 hr, and the glucose content released in the medium was measured. A glucose measurement kit (A-22189) manufactured by Molecular Probes was used for the glucose measurement. The sugar release suppressive activity is shown in a relative value when the released glucose content of a GSK3β inhibitor free group is 100%.

For assay [1], the target named is T1, recombinant GSK3β enzyme (human GSK3β) (Homo sapiens, UniProt P49841).
T1 construct: FLAG (N); made in house; host or cells: Sf-21 insect cells, recombinant baculovirus (pFASTBAC1 / BAC-TO-BAC)
As to the kind of experiment: Measurement of GSK3β inhibitory activity. The assay is classed as biochemical. The note with it: glycogen synthase peptide substrate, Kinase Glo luminescence, read-out: IC50 (concentration of test compound needed for 50% inhibition of luminescent intensity), GSK3β inhibitory activity. A digest of the protocol:
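FLAG-purified human GSK3β expressed in baculovirus-infected Sf-21 cells; reaction with 2.5 μM ATP (stock solution) at room temperature, 30 min. Residual ATP measured by Kinase-Glo luminescence; IC50 as concentration inhibiting 50% of luminescent intensity.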

SMILES strings stand for the structures. pIC50: −log10 of the molar value.

T1 sequence (P49841 whole entry): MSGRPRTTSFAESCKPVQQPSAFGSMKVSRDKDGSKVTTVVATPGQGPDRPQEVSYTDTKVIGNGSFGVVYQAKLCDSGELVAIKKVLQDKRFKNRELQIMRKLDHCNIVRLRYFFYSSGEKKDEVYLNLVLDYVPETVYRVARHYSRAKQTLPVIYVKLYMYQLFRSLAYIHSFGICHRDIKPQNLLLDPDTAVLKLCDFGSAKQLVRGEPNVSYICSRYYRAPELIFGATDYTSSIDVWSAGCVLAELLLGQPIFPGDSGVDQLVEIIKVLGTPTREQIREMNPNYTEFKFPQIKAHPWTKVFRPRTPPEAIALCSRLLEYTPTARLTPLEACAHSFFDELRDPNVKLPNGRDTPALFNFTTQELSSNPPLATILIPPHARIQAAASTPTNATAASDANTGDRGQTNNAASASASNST

Turning to `Cc1ccc(C(=O)Nc2c[nH]nc2C(=O)NCC(F)(F)F)cn1` [Example 480, 6-methyl-N-(3-(((2,2,2-trifluoroethyl)amino)carbonyl)-1H-pyrazol-4-yl)pyridine-3-carboxamide], in the assay with H4IIE-C3 cells, the activity at 10 µM was found to be 69%. The same measure, in the same setting: for `CC(C)(CO)CNC(=O)c1n[nH]cc1NC(=O)c1ccccn1` [Example 470, N-(3-(((3-hydroxy-2,2-dimethylpropyl)amino)carbonyl)-1H-pyrazol-4-yl)pyridine-2-carboxamide] the value was 75%. For the compound `N#CCCNC(=O)c1n[nH]cc1NC(=O)c1cccs1` [Example 416, N-(2-cyanoethyl)-4-(2-thienylcarbonylamino)-1H-pyrazole-3-carboxamide], the pIC50 in assay [1] is more than 7.00. For the same compound, in the assay with H4IIE-C3 cells, the activity at 10 µM came to 62%. `Cc1cccc(C(=O)Nc2c[nH]nc2C(=O)NCCCOC(C)C)n1` [Example 430, N-(3-(((3-isopropoxypropyl)amino)carbonyl)-1H-pyrazol-4-yl)-6-methylpyridine-2-carboxamide]: the activity at 10 µM in the assay on H4IIE-C3 cells came to 76%. Regarding `N#CCCNC(=O)c1n[nH]cc1NC(=O)c1ccco1` [Example 412, N-(2-cyanoethyl)-4-(2-furoylamino)-1H-pyrazole-3-carboxamide], in assay [1], the pIC50 was more than 7.00. Besides, the activity at 10 µM in the assay on H4IIE-C3 cells is 74%. As for `N#CCCNC(=O)c1n[nH]cc1NC(=O)c1ccccc1` [Example 420, 4-(benzoylamino)-N-(2-cyanoethyl)-1H-pyrazole-3-carboxamide], in assay [1], the pIC50 was more than 7.00. In addition, the activity at 10 µM in the assay on H4IIE-C3 cells came out at 62%. Turning to `Cc1cccc(C(=O)Nc2c[nH]nc2C(=O)NCCOC(C)C)n1` [Example 426, N-(3-(((2-isopropoxyethyl)amino)carbonyl)-1H-pyrazol-4-yl)-6-methylpyridine-2-carboxamide], in assay [1], the pIC50 is more than 7.00. Further, the activity at 10 µM with H4IIE-C3 cells was found to be 55%. On to `O=C(Nc1c[nH]nc1C(=O)NCCc1ccccc1)c1ccc(C(F)(F)F)cc1` [Example 132, N-(2-phenylethyl)-4-{[4-(trifluoromethyl)ben-zoyl]-amino}-1H-pyrazole-3-carboxamide], for which the pIC50 in assay [1] is 7.00. Still for that read-out and setting: for `CCOCC(=O)Nc1c[nH]nc1C(=O)NCc1ccccc1` [Example 103, N-benzyl-4-[(ethoxyacetyl)amino]-1H-pyrazole-3-carboxamide] the value was more than 7.00. Take `O=C(CC1CCCC1)Nc1c[nH]nc1C(=O)Nc1ccccc1` [compound 081]: the pIC50 in assay [1] was 6.97. Same read-out and setting: to `O=C(Nc1c[nH]nc1C(=O)NC1CCCC1)c1ccc(F)cc1F` [compound 073] belongs more than 7.00; to `CC(=O)Nc1cccc(C(=O)Nc2c[nH]nc2C(=O)NCC#N)c1` [Example 380, 4-((3-(acetylamino)benzoyl)amino)-N-(cyanomethyl)-1H-pyrazole-3-carboxamide], more than 7.00. Same read-out and setting: for `O=C(/C=C/c1ccccc1)Nc1c[nH]nc1C(=O)NCc1ccco1` [Example 148, N-(2-furylmethyl)-4-{[(2E)-3-phenylprop-2-enoyl]amino}-1H-pyrazole-3-carboxamide] the value was 6.41.

Turning to `O=C(CCc1ccccc1)Nc1c[nH]nc1C(=O)NCCc1ccccc1` [Example 128, N-(2-phenylethyl)-4-[(3-phenylpropanoyl)amino]-1H-pyrazole-3-carboxamide], the pIC50 in assay [1] was more than 7.00. With `CCOCC(=O)Nc1c[nH]nc1C(=O)NCc1ccco1` [Example 147, 4-[(ethoxyacetyl)amino]-N-(2-furylmethyl)-1H-pyrazole-3-carboxamide], in assay [1], the pIC50 was more than 7.00. Regarding `CC(C)(C)OCCCNC(=O)c1n[nH]cc1NC(=O)c1ccccn1` [Example 455, N-(3-(((3-tert-butoxypropyl)amino)carbonyl)-1H-pyrazol-4-yl)pyridine-2-carboxamide], the activity at 10 µM in the assay with H4IIE-C3 cells is 79%. For the compound `CC(=O)Nc1cccc(C(=O)Nc2c[nH]nc2C(=O)NCCOC(C)(C)C)c1` [Example 381, 4-((3-(acetylamino)benzoyl)amino)-N-(2-tert-butoxyethyl)-1H-pyrazole-3-carboxamide], the pIC50 in assay [1] was 6.85. As to `O=C(/C=C/c1ccccc1)Nc1c[nH]nc1C(=O)NCCc1ccccc1` [Example 127, N-(2-phenylethyl)-4-{[(2E)-3-phenylprop-2-enoyl]amino}-1H-pyrazole-3-carboxamide], in assay [1], the pIC50 was more than 7.00. As to `CC1(C)C2CC[C@@]1(CS(=O)(=O)Nc1c[nH]nc1C(=O)NCCc1ccccc1)C(=O)C2` [compound 305], the pIC50 in assay [1] was more than 7.00.

`CCOCC(=O)Nc1c[nH]nc1C(=O)NCCc1ccccc1` [Example 125, 4-[(ethoxyacetyl)amino]-N-(2-phenylethyl)-1H-pyrazole-3-carboxamide]: the pIC50 in assay [1] was more than 7.00. For `CC(C)OCCNC(=O)c1n[nH]cc1NC(=O)c1ccccc1` [Example 424, 4-(benzoylamino)-N-(2-isopropoxyethyl)-1H-pyrazole-3-carboxamide], the pIC50 in assay [1] was more than 7.00. For the compound `O=C(Nc1c[nH]nc1C(=O)NCCC(F)(F)F)c1ccccn1` [Example 393, N-(3-(((3,3,3-trifluoropropyl)amino)carbonyl)-1H-pyrazol-4-yl)pyridine-2-carboxamide], in assay [1], the pIC50 was more than 7.00. The same measure, in the same setting: to `CC(C)NC(=O)c1n[nH]cc1NC(=O)c1ccc(-c2ccccc2)cc1` [compound 028] belongs more than 7.00; to `O=C(CC1CCCC1)Nc1c[nH]nc1C(=O)NCc1ccco1` [Example 143, 4-[(cyclopentylacetyl)amino]-N-(2-furylmethyl)-1H-pyrazole-3-carboxamide], 6.81.

For `O=C(Nc1c[nH]nc1C(=O)NCc1ccccc1)c1ccc(Oc2ccccc2)cc1` [Example 114, N-benzyl-4-[(4-phenoxybenzoyl)amino]-1H-pyrazole-3-carboxamide], the pIC50 in assay [1] was 6.40. With `O=C(Nc1c[nH]nc1C(=O)NCc1ccccc1)c1cnccn1` [Example 119, N-{3-[(benzylamino)carbonyl]-1H-pyrazol-4-yl}pyrazine-2-carboxamide], in assay [1], the pIC50 was more than 7.00. On the same count and under the same terms, to `O=C(COc1ccccc1)Nc1c[nH]nc1C(=O)NCCc1ccccc1` [Example 123, 4-[(phenoxyacetyl)amino]-N-(2-phenylethyl)-1H-pyrazole-3-carboxamide] belongs more than 7.00; to `COc1ccccc1CC(=O)Nc1c[nH]nc1C(=O)NC(C)C` [compound 025], 6.61; to `O=C(Nc1c[nH]nc1C(=O)NCc1ccc(-c2ccccc2)cc1)c1ccccn1` [Example 354, N-(3-(((biphenyl-4-ylmethyl)amino)carbonyl)-1H-pyrazol-4-yl)pyridine-2-carboxamide], more than 7.00. `CC(=O)Nc1cccc(C(=O)Nc2c[nH]nc2C(=O)NCc2ccccc2)c1` [Example 116, 4-{[3-(acetylamino)benzoyl]amino}-N-benzyl-1H-pyrazole-3-carboxamide]: the pIC50 in assay [1] was more than 7.00. As to `O=C(CCc1ccccc1)Nc1c[nH]nc1C(=O)NC1CCCC1` [compound 067], in assay [1], the pIC50 is more than 7.00. For `O=C(CCc1ccccc1)Nc1c[nH]nc1C(=O)NCc1ccccc1` [Example 106, N-benyzl-4-[(3-phenylpropanoyl)amino]-1H-pyrazole-3-carboxamide], the pIC50 in assay [1] was 6.62. Take `CCOCC(=O)Nc1c[nH]nc1C(=O)NC1CCCC1` [compound 064]: the pIC50 in assay [1] is more than 7.00. The same measure, in the same setting: to `CC(C)OCCCNC(=O)c1n[nH]cc1NC(=O)c1ccccn1` [Example 353, N-(3-(((3-isopropoxypropyl)amino)carbonyl)-1H-pyrazol-4-yl)pyridine-2-carboxamide] belongs more than 7.00; to `CC(=O)Nc1cccc(C(=O)Nc2c[nH]nc2C(=O)NCCN(C)C)c1` [Example 373, 4-((3-(acetylamino)benzoyl)amino)-N-(2-(dimethylamino)ethyl)-1H-pyrazole-3-carboxamide], more than 7.00; to `CCOCC(=O)Nc1c[nH]nc1C(=O)NC(C)C` [compound 021], more than 7.00. On the same count and under the same terms, for `O=C(Cc1c[nH]c2ccccc12)Nc1c[nH]nc1C(=O)Nc1ccccc1` [compound 089] the value was 6.42; for `O=C(Nc1c[nH]nc1C(=O)NCCc1ccc(Br)cc1)c1ccccn1` [Example 351, N-(3-(((2-(4-bromophenyl)ethyl)amino)carbonyl)-1H-pyrazol-4-yl)pyridine-2-carboxamide], more than 7.00. On the same count and under the same terms, for `N#CCNC(=O)c1n[nH]cc1NC(=O)c1ccccn1` [Example 395, N-(3-(((cyanomethyl)amino)carbonyl)-1H-pyrazol-4-yl)pyridine-2-carboxamide] the value was more than 7.00.

Turning to `CC(=O)Nc1cccc(C(=O)Nc2c[nH]nc2C(=O)NCCC#N)c1` [Example 372, 4-((3-(acetylamino)benzoyl)amino)-N-(2-cyanoethyl)-1H-pyrazole-3-carboxamide], in assay [1], the pIC50 was more than 7.00. Same read-out and setting: for `CC(C)NC(=O)c1n[nH]cc1NC(=O)c1ccc(F)cc1F` [compound 031] the value was more than 7.00; for `O=C(Nc1c[nH]nc1C(=O)NC1CCCC1)c1ccc(C(F)(F)F)cc1` [compound 071], more than 7.00.

The values above are taken from patent US20090156582A1, “Pyrazole Compound” (priority 2005, published 2009).
